Results from article PMC6768916, “Population pharmacokinetics of fedratinib in patients with myelofibrosis, polycythemia vera, and essential thrombocythemia” (Cancer Chemotherapy and Pharmacology, 2019).
Entries after “also recorded” stand apart in the source; their conditions may differ. Where two headings read alike, the source gives them in different places.

How the values were obtained:
[1] = system: JAK2 V617F-driven aberrant human PV progenitor erythroid differentiation; parameters: method as in PMID 18394555; details: cited from earlier work
[2] = human, in vivo; cited from earlier work
[3] = system: wild-type JAK2; parameters: method as in PMID 18394554; details: cited from earlier work
[4] = system: activated mutant JAK2 V617F; parameters: method as in PMID 18394554; details: cited from earlier work
[5] = system: FLT3; parameters: method as in PMID 18394554; details: cited from earlier work
[6] = population pharmacokinetic model in patients with MF, PV or ET; format: in vivo, human
Description: The population PK analysis utilized data from one phase 1 study (TED12037 [NCT00631462]), four phase 2 studies (ARD11936 [NCT01420770], ARD12042 [NCT01420783], ARD12181 [NCT01523171], ARD12888 [NCT01692366]) and one phase 3 study (EFC12153 [NCT01437787]). Study design, dosing regimen, and PK sampling information are presented in Supplementary Table 1. These studies were conducted in accordance with the Declaration of Helsinki and the International Council for Harmonisation Guideline for Good Clinical Practice (ICH E6). Written informed consent was obtained from all subjects.
Concentrations of fedratinib in plasma were determined using a validated high-performance liquid chromatography with tandem mass spectrometric detection, with good accuracy (− 6.75–8.8%) and precision (4.84–13.11%). The lower limit of quantification was 1 ng/mL, and the calibration range was 1–1000 ng/mL.
Population PK analyses were conducted using a nonlinear mixed-effect modeling approach, as implemented in the NONMEM software version 7.3.0 (ICON Development Solutions, Ellicott City, MD). Plotting of NONMEM outputs was conducted using the R software (version 3.4.1) and RStudio (version 1.1.456, Boston, MA).
In the development of the structural model, one- to three-compartment models with first-order elimination and different absorption models including first-order absorption with and without lag time, zero-order absorption and transit compartment model were tested to fit the plasma concentration-time data. First-order conditional estimation (FOCE) with interaction method was used for parameter estimation, with natural logarithm-transformed plasma fedratinib concentration data. The inter-subject variability was modeled assuming a log-normal distribution. Residual variability was modeled using an additive model. The model selection was based on the objective function value (OFV) using the log-likelihood ratio test, the goodness of fit criteria and visual predictive check (VPC). Covariate model building was carried out using a stepwise procedure, with significance levels set to 0.01 and 0.001 for the forward inclusion and backward elimination steps, respectively. Missing baseline covariates were imputed as the median value in the study population.
Stability of the final PK parameter estimates and the 95% confidence interval (CI) for the parameters were evaluated using the nonparametric bootstrap approach. With this approach, 500 datasets of size equal to the original dataset were generated by random resampling with replacement from the original dataset. The final model was fit to each of the 500 bootstrap datasets and all the model parameters were estimated for each dataset. The median and nonparametric 95% CI (2.5–97.5 percentiles) of the 500 estimates were calculated for each parameter. The ability of the final population PK model to describe the observed concentration data was evaluated by simulating 200 datasets having the same doses, dosing schedules and sampling times as the original dataset and by performing prediction-corrected VPC [18]. The 5th, 50th and 95th prediction percentiles of the fedratinib concentrations at each binned time point were computed for each simulated trial. Thereafter, the nonparametric 90% CI of the 5th, 50th and 95th prediction percentiles at each binned time point were calculated for the 200 simulated trials.

[7] = cited from earlier work
[8] = final model, inter-individual variability

Compound: Cc1cnc(Nc2ccc(OCCN3CCCC3)cc2)nc1Nc1cccc(S(=O)(=O)NC(C)(C)C)c1 [fedratinib, Fedratinib]
- inhibition of JAK2 V617F-driven aberrant human PV progenitor erythroid differentiation [1]: significantly inhibits
- CL/F of healthy subjects [2]: 20.7 to 46.0 L/h
- dose proportionality of exposure [2]: greater than dose-proportional increase
- mean terminal half-life [2]: 62 to 78 h
- selectivity for JAK2 over JAK1, JAK3 and TYK2 [3]: selective for JAK2 over JAK1, JAK3 and TYK2
- IC50 ([3]; wild-type JAK2): 3 nM
- IC50 [4]: 3 nM
- IC50 [5]: 15 nM
- increase in exposure (steady-state AUC) with moderate renal impairment vs normal renal function ([6]; 30 ≤ CLcr < 60 mL/min vs CLcr ≥ 90 mL/min): 37%
- increase in exposure (steady-state AUC) with mild renal impairment vs normal renal function ([6]; 60 ≤ CLcr < 90 mL/min vs CLcr ≥ 90 mL/min): 10%
- apparent clearance of a typical PV patient ([6]; CLcr = 78.5 mL/min): 20.0 L/h
- increase in typical AUC with severe renal impairment vs normal renal function ([6]; MF patients, severe renal impairment, N = 3): 59%
- typical value of CL/F, base model ([6]; base model): 13.6 L/h
- typical value of V2/F, base model ([6]; base model): 340 L
- magnitude of changes in V2/F by body weight ([6]; body weight 39.5 to 135 kg): less than 30%
- magnitude of changes in V2/F by dose ([6]; covariate analysis): less than 30%
- linearity of PK with dose ([6]; doses of 200 mg and above): linear, time-invariant PK; also recorded: increased linearly
- CL/F higher in PV patients compared to MF or ET patients ([6]; final model): 54%
- CL/F of a typical MF patient ([6]; final model): 13.0 L/h
- TVCL/F, parameter estimate ([6]; final model): 13.0 L/h
- TVKa, parameter estimate ([6]; final model): 1.57 h⁻¹
- TVQ/F, parameter estimate ([6]; final model): 45.2 L/h
- TVV2/F, parameter estimate ([6]; final model): 311 L
- TVV3/F, parameter estimate ([6]; final model): 1460 L
- V2/F higher in PV patients compared to MF or ET patients ([6]; final model): 87%
- fold higher CL/F in PV patients compared to MF or ET patients ([6]; final model): 1.54 fold
- fold higher V2/F in PV patients compared to MF or ET patients ([6]; final model): 1.87 fold
- TVCL/F, bootstrap median (95% CI) ([6]; final model, 484 of 500 bootstrap replicates): 13.1 (12.4 to 13.9) L/h
- TVALAG1, parameter estimate ([6]; final model, absorption lag time): 0.265 h
- COVCL/F-V2/F, bootstrap median (95% CI) ([6]; final model, bootstrap): 0.193 (0.145 to 0.249)
- PV on V2/F, bootstrap median (95% CI) ([6]; final model, bootstrap): 1.85 (1.40 to 2.42)
- TVALAG1, bootstrap median (95% CI) ([6]; final model, bootstrap): 0.265 (0.264 to 0.321) h
- TVKa, bootstrap median (95% CI) ([6]; final model, bootstrap): 1.64 (1.34 to 2.05) h^−1
- TVQ/F, bootstrap median (95% CI) ([6]; final model, bootstrap): 45.2 (38.5 to 52.9) L/h
- TVV2/F, bootstrap median (95% CI) ([6]; final model, bootstrap): 313 (282 to 343) L
- TVV3/F, bootstrap median (95% CI) ([6]; final model, bootstrap): 1470 (1190 to 1790) L
- Weight on V2/F, bootstrap median (95% CI) ([6]; final model, bootstrap): 0.733 (0.383 to 1.10)
- σ^2 (Log additive), bootstrap median (95% CI) ([6]; final model, bootstrap): 0.194 (0.159 to 0.264)
- ω^2, Ka, bootstrap median (95% CI) ([6]; final model, bootstrap): 1.09 (0.728 to 1.54)
- ω^2, V2/F, bootstrap median (95% CI) ([6]; final model, bootstrap): 0.371 (0.247 to 0.510)
- COVCL/F-V2/F, parameter estimate ([6]; final model, covariance): 0.197
- PV on V2/F, parameter estimate ([6]; final model, covariate factor if PV): 1.87
- Weight on V2/F, parameter estimate ([6]; final model, exponent of (Weight/70.1)): 0.727
- ω^2, Ka, parameter estimate [6, 8]: 1.07
- ω^2, V2/F, parameter estimate [6, 8]: 0.383
- σ^2 (Log additive), parameter estimate ([6]; final model, residual variability): 0.201
- effect of age, body weight, sex, race and liver function on exposure/PK ([6]; population PK covariate analysis): No clinically meaningful effect
- dose proportionality of exposure ([7]; 300–500 mg at steady state): approximately dose-proportional
- mean accumulation ratio ([7]; 300–500 mg once daily, steady state): 2.95–3.88
- time to peak plasma concentration ([7]; human, in vivo, po): 0.5 to 4 h
- dose proportionality of exposure ([7]; human, in vivo): greater than dose-proportional increase
- time to steady state of plasma levels ([7]; once daily dosing): ≤ 15 days
